Reference: ChEMBL document CHEMBL1201862, “PubChem BioAssay data set” (2004)
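Exposure lasted 48 hours, with cells grown in 96-well plates and compounds tested at five concentrations. The concentration for 50% growth inhibition is given as GI50.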 The source made the active and inactive calls. No stated cut-off is given here; in the data, active = GI50 up to about 1.1 µM and inactive = higher.

Key:
Assay in all cases: NCI-60 cell line screen, 48 h
UACC-62 = test system: UACC-62
CCRF-CEM = test system: CCRF-CEM
UACC-257 = test system: UACC-257
NCI-H226 = test system: NCI-H226
NCI/ADR-RES = test system: NCI/ADR-RES
U-251 = test system: U-251
SK-MEL-5 = test system: SK-MEL-5
NCI-H460 = test system: NCI-H460
BT-549 = test system: BT-549
MDA-MB-435 = test system: MDA-MB-435
SF-268 = test system: SF-268
RPMI-8226 = test system: RPMI-8226
Malme-3M = test system: Malme-3M
OVCAR-5 = test system: OVCAR-5
MOLT-4 = test system: MOLT-4
MDA-MB-231 = test system: MDA-MB-231
T47D = test system: T47D
OVCAR-4 = test system: OVCAR-4
OVCAR-3 = test system: OVCAR-3
SNB-75 = test system: SNB-75

SMILES | GI50 (UACC-62) | GI50 (CCRF-CEM) | GI50 (UACC-257) | GI50 (NCI-H226) | GI50 (NCI/ADR-RES) | GI50 (U-251) | GI50 (SK-MEL-5) | GI50 (NCI-H460) | GI50 (BT-549) | GI50 (MDA-MB-435) | GI50 (SF-268) | GI50 (RPMI-8226) | GI50 (Malme-3M) | GI50 (OVCAR-5) | GI50 (MOLT-4) | GI50 (MDA-MB-231) | GI50 (T47D) | GI50 (OVCAR-4) | GI50 (OVCAR-3) | GI50 (SNB-75)
Cc1ccccc1/N=N/c1ccc(N/N=C2/CCCNC2=O)c(C)c1 | > 100 µM (inactive) | 9.46 µM (inactive) | > 100 µM (inactive) | > 100 µM (inactive) | > 100 µM (inactive) | > 100 µM (inactive) | 45.2 µM (inactive) | > 100 µM (inactive) | > 100 µM (inactive) | > 100 µM (inactive) | > 100 µM (inactive) | > 100 µM (inactive) | > 100 µM (inactive) | > 100 µM (inactive) | 34.6 µM (inactive) | > 100 µM (inactive) | 33 µM (inactive) | 66.8 µM (inactive) |  | 
O=C1NC(=O)/C(=C\c2ccncc2)N1 |  |  | > 100 µM (inactive) | > 100 µM (inactive) | > 100 µM (inactive) | > 100 µM (inactive) | > 100 µM (inactive) | > 100 µM (inactive) | > 100 µM (inactive) | > 100 µM (inactive) |  |  |  | > 100 µM (inactive) | > 100 µM (inactive) | > 100 µM (inactive) | > 100 µM (inactive) | > 100 µM (inactive) | > 100 µM (inactive) | > 100 µM (inactive)
Nc1cnc2c(c1)c(=O)nc1n2CCS1 | > 100 µM (inactive) | 77.6 µM (inactive) | > 100 µM (inactive) | > 100 µM (inactive) | > 100 µM (inactive) | > 100 µM (inactive) | > 100 µM (inactive) | > 100 µM (inactive) | > 100 µM (inactive) | > 100 µM (inactive) | > 100 µM (inactive) | 74 µM (inactive) | > 100 µM (inactive) | > 100 µM (inactive) | > 100 µM (inactive) | 80 µM (inactive) |  | > 100 µM (inactive) | > 100 µM (inactive) | 86.9 µM (inactive)
Nc1ccccc1-n1c2c(c3ccccc3c1=O)C(=O)c1ccccc1-2 | 17.2 µM (inactive) | 48.9 µM (inactive) | 35.9 µM (inactive) | < 0.01 µM (active) | 14.6 µM (inactive) | 15.2 µM (inactive) | 10.4 µM (inactive) | 24.5 µM (inactive) | 0.857 µM (active) | 57.9 µM (inactive) | 8.24 µM (inactive) | 60.1 µM (inactive) | 16.3 µM (inactive) | > 100 µM (inactive) | 4.25 µM (inactive) | 23.9 µM (inactive) |  | 4.11 µM (inactive) | 21.8 µM (inactive) | 11.8 µM (inactive)
Cc1cc(C)nc(NS(=O)(=O)c2ccc(NC(=O)NC(F)(F)F)cc2)n1 |  | > 100 µM (inactive) | > 100 µM (inactive) |  | > 100 µM (inactive) | > 100 µM (inactive) | > 100 µM (inactive) |  | > 100 µM (inactive) | > 100 µM (inactive) | > 100 µM (inactive) | > 100 µM (inactive) |  | > 100 µM (inactive) | > 100 µM (inactive) |  | > 100 µM (inactive) |  |  | > 100 µM (inactive)
CSc1s[s+]c(SC)c1-c1ccccc1 | 13.4 µM (inactive) | 25.2 µM (inactive) | 14.4 µM (inactive) |  | 18.7 µM (inactive) | 19.4 µM (inactive) | 15.7 µM (inactive) | 29.7 µM (inactive) | 13.9 µM (inactive) | 18.9 µM (inactive) | 18.2 µM (inactive) | 19.8 µM (inactive) | 11.3 µM (inactive) | 15.8 µM (inactive) | 46.1 µM (inactive) | 12.2 µM (inactive) | 32.6 µM (inactive) | 0.329 µM (active) | 15 µM (inactive) | 
CNc1ccc([S+]([O-])Nc2ccc(OC)cc2)cc1 (stereo not drawn) | > 10 µM (inactive) | 46.5 µM (inactive) | > 100 µM (inactive) | > 100 µM (inactive) | 27.9 µM (inactive) | 43.4 µM (inactive) | 19.3 µM (inactive) | 32 µM (inactive) | 2.06 µM (inactive) | 14.2 µM (inactive) | > 100 µM (inactive) | > 100 µM (inactive) | 41.7 µM (inactive) |  | 51.8 µM (inactive) | 17.1 µM (inactive) | 31.8 µM (inactive) | > 100 µM (inactive) | > 100 µM (inactive) | 
O=C(O)c1ccc(C=C2Sc3ccccc3S2)cc1 | 26.2 µM (inactive) | 55.5 µM (inactive) | 54.5 µM (inactive) | > 100 µM (inactive) | 59.3 µM (inactive) | 48.2 µM (inactive) | 51.6 µM (inactive) | 50 µM (inactive) | 62.7 µM (inactive) | 21.1 µM (inactive) | 52.6 µM (inactive) | 63.7 µM (inactive) | 84.7 µM (inactive) | 66.1 µM (inactive) | 42.4 µM (inactive) | > 100 µM (inactive) | 45 µM (inactive) | 55.3 µM (inactive) | 30.3 µM (inactive) | 
CN1C(=O)C2CCCC(=O)N2c2cccnc21 (stereo not drawn) | 68.9 µM (inactive) | > 100 µM (inactive) | > 100 µM (inactive) | > 100 µM (inactive) | > 100 µM (inactive) | > 100 µM (inactive) | > 100 µM (inactive) | > 100 µM (inactive) | > 100 µM (inactive) | > 100 µM (inactive) | > 100 µM (inactive) | > 100 µM (inactive) | > 100 µM (inactive) |  | > 100 µM (inactive) | > 100 µM (inactive) | > 100 µM (inactive) | > 100 µM (inactive) | > 100 µM (inactive) | 
CC(C)[Si](OC1=CCC[C@H]2NC(=O)[C@@H](Cc3ccccc3)[C@@]12C)(C(C)C)C(C)C | 8.95 µM (inactive) | 2.85 µM (inactive) | 4.54 µM (inactive) |  | 6.49 µM (inactive) | 3.62 µM (inactive) | 3.37 µM (inactive) | 3.52 µM (inactive) | 10.8 µM (inactive) | 4.04 µM (inactive) | 12.1 µM (inactive) |  | 12.8 µM (inactive) | 9.44 µM (inactive) | 3.89 µM (inactive) | 12.6 µM (inactive) | 2.79 µM (inactive) | 5.25 µM (inactive) | 5.79 µM (inactive) | 15.4 µM (inactive)
CC1(C(=O)O)CCCC1C(=O)O (stereo not drawn) | > 100 µM (inactive) | > 100 µM (inactive) | > 100 µM (inactive) | > 100 µM (inactive) | > 100 µM (inactive) | > 100 µM (inactive) | > 100 µM (inactive) | > 100 µM (inactive) | > 100 µM (inactive) |  | > 100 µM (inactive) | 4.51 µM (inactive) | > 100 µM (inactive) | > 100 µM (inactive) | > 100 µM (inactive) | > 100 µM (inactive) | > 100 µM (inactive) | > 100 µM (inactive) | > 100 µM (inactive) | 
CCCCCc1cc2cc3c(c(O)c2c(=O)[nH]1)C1(CCC3)C(=O)c2c(O)ccc(O)c2C1=O |  | > 100 µM (inactive) | > 100 µM (inactive) | > 100 µM (inactive) | 99.5 µM (inactive) | > 100 µM (inactive) | > 100 µM (inactive) | > 100 µM (inactive) | > 100 µM (inactive) | > 100 µM (inactive) | > 100 µM (inactive) | > 100 µM (inactive) | > 100 µM (inactive) | > 100 µM (inactive) | > 100 µM (inactive) | > 100 µM (inactive) |  | 88.5 µM (inactive) | > 100 µM (inactive) | 58.2 µM (inactive)
CC(C)(C)OC(=O)N/C(C=O)=C\C1CCCCC1 | 15.6 µM (inactive) | 29.6 µM (inactive) | 20.4 µM (inactive) | 21.2 µM (inactive) | 18.3 µM (inactive) | 17.2 µM (inactive) | 15.3 µM (inactive) | 20.2 µM (inactive) | 25.2 µM (inactive) | 20 µM (inactive) | 17.4 µM (inactive) |  | 25.8 µM (inactive) | 19.8 µM (inactive) | 14.8 µM (inactive) | 19.5 µM (inactive) | 24.6 µM (inactive) | 23.1 µM (inactive) | 24.1 µM (inactive) | 29.7 µM (inactive)
CC(=O)c1ccc(/N=N/N2CCCC2)cc1 | > 100 µM (inactive) | > 100 µM (inactive) | > 100 µM (inactive) | > 100 µM (inactive) | > 100 µM (inactive) | > 100 µM (inactive) | > 100 µM (inactive) | > 100 µM (inactive) | > 100 µM (inactive) | > 100 µM (inactive) | > 100 µM (inactive) |  |  | > 100 µM (inactive) | > 100 µM (inactive) | > 100 µM (inactive) | > 100 µM (inactive) | > 100 µM (inactive) | > 100 µM (inactive) | > 100 µM (inactive)
COc1ccc2c(c1)/C(=C\c1cccc(/C=C3/C(=O)Nc4ccc(OC)cc43)n1)C(=O)N2 |  | 0.421 µM (active) | 2.48 µM (inactive) |  | 8.85 µM (inactive) | 0.461 µM (active) | 0.834 µM (active) | 1.4 µM (inactive) | 0.91 µM (active) | 1.17 µM (inactive) | 2.42 µM (inactive) |  | 2.01 µM (inactive) | 1.01 µM (active) | 0.261 µM (active) |  | 0.381 µM (active) | 1.02 µM (active) | 0.676 µM (active) | 19.1 µM (inactive)
O=C(CCCn1ccnc1[N+](=O)[O-])NCCn1cnc([N+](=O)[O-])n1 | > 100 µM (inactive) | > 100 µM (inactive) | > 100 µM (inactive) | > 100 µM (inactive) | > 100 µM (inactive) | > 100 µM (inactive) | > 100 µM (inactive) | > 100 µM (inactive) | > 100 µM (inactive) | > 100 µM (inactive) | > 100 µM (inactive) | > 100 µM (inactive) | > 100 µM (inactive) | > 100 µM (inactive) | > 100 µM (inactive) |  | > 100 µM (inactive) | > 100 µM (inactive) | > 100 µM (inactive) | > 100 µM (inactive)
